# Experimental data as given in publication PMC6767236, “Selective Cannabinoid 2 Receptor Agonists as Potential Therapeutic Drugs for the Treatment of Endotoxin-Induced Uveitis” (Molecules, 2019).
# Tests used:
# [1] = molecular target: mouse CB2R (Mus musculus, UniProt P47936); design: bgal (beta-galactosidase fragment of the PathHunter system, named only in the cell line's name); host or cells: CHO-K1 (CHOK1mCB2_bgal); conditions: * previously published; read-out: mouse CB2R: cAMP EC50; cited from earlier work
# [2] = system: neutrophils from WT mice; experiment: Transwell neutrophil migration assay towards CXCL2, WT neutrophils; type: cell-based, mouse; conditions: for CXCL2-induced neutrophil migration: WT neutrophils pre-treated 30 min, 10 nM CXCL2, RO6851228 at 0.01–1.0 μM
# Procedure: As described previously, mouse neutrophils were isolated from the bone marrow of mice. Mice were euthanized, femur and tibia were dissected and flushed with ice-cold 1× Hanks balanced salt solution (HBSS; supplemented with […], pH7.5, and 0.5 mM EDTA; Invitrogen) through a sterile filter (70 μm). The suspension was centrifuged at 300× g for 12 min at 4 °C. EasySep™ neutrophil enrichment kit ([…] Technologies Inc., Vancouver, BC, Canada) was used to isolate neutrophils according to the manufacturer’s instructions. The isolated neutrophils were then washed once and the pelleted cells were suspended in RPMI (Invitrogen) containing 1% heat-inactivated fetal bovine serum (FBS, Invitrogen) and used immediately for neutrophil migration experiments or processed for adoptive transfer. The murine neutrophil isolation protocol routinely yields cell suspensions that are >95% pure and viable, as determined by cresyl violet and trypan blue exclusion, respectively.
# Neutrophil migration assays were performed using a Transwell migration assay. Isolated neutrophils (1 × 10^5 cells/100 μL) from WT or CB2R^-/- mice were incubated with vehicle (0.01% DMSO), or various concentrations of RO8671304 or RO6851228 at 37 °C, 5% CO2 for 30 min. Cells were then loaded into the upper chamber of 3 μm Transwell inserts (Corning Life Sciences, Corning, NY, USA) coated with 5% FBS. Transwells were placed in 24-well plates containing RPMI (1% FBS) alone or 10^−8 M chemokine C–X–C motif ligand 2 (CXCL2)/[…] (Peprotech, Rocky Hill, NJ, USA). Plates were incubated for 1 h at 37 °C, 5% CO2. To determine the number of neutrophils that migrated from the top to the bottom chamber, the filter was removed and neutrophils in the lower chamber gently pipetted to evenly distribute and sink to the bottom of the pate. An Olympus inverted bright-field microscope with an Infinity 3 camera (Lumenera, Ottawa, ON, Canada) was used to photograph 12 random fields (10× magnification) of each well. The number of migrated neutrophils was then determined using ImageJ. […]
# [3] = Kinetic lyophilization solubility assay; type: physicochemical; conditions: 0.05 M phosphate buffer, aqueous buffer, thermodynamic from solid; phosphate buffer pH 6.5
# Procedure: The X-ray structure of CB2R complexed with the antagonist AM10257 (5zty) was used as a template to dock CB2R ligands. The docking experiments were performed with the software GOLD ([…]) with default settings. The best 10 docking poses for each compound were energy-minimized within the binding pocket using MOE ( molecular operating environment ver. 2014.09, Chemical Computing Group, Montreal, Canada) and examined visually to select the most reasonable docking mode with respect to molecular interactions and internal conformational strain. The final selection was based on checking consiste ncy with the available structure –activity relationship information.
# Kinetic Lyophilization Solubility Assay
# The solubility of a test compound in phosphate buffer at pH 6.5 from evaporated DMSO stock solution is measured over time, resulting in the kinetic solubility of the compound. Samples were prepared in duplicate from 10 mM DMSO stock solutions. […] The filtrate and its 1 :10 dilution were analyzed by direct UV measurement or by HPLC -UV. […]
# Approximately 8.6 mg test compound per milliliter solvent/vehicle was stirred in HPLC vials (9 × 12 × 32 mm, Waters) at 350 rpm for 15 h. […] Addition of solid material was repeated up to 96 h or until residual solid particles could be detected. […] The filtrates were diluted in ethanol and analyzed for content by UPLC. […]
# mouse CB2R, sequence (P47936 whole entry, the tested form may be a part): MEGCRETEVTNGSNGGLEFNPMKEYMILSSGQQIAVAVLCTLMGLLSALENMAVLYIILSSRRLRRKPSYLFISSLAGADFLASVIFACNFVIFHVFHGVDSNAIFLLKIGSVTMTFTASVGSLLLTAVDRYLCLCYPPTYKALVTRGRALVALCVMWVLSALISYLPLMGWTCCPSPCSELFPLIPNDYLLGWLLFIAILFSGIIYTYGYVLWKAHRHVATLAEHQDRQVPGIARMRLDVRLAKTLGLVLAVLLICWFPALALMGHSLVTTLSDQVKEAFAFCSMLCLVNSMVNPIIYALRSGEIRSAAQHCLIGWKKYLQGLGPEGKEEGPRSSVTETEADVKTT
Structure (SMILES),EC50 [1],CXCL2-induced neutrophil migration [2],solubility kinetic at 15 h [3],"IC50 ([2]; Neutrophil, towards 10 nM CXCL2, WT mouse neutrophils, read-out: IC50 for inhibition of neutrophil migration)"
"CNC(=O)[C@@H](NC(=O)c1cc(OCC2(C)COC2)c(C2CC2)cn1)C(C)(C)C [RO6851228, 5-Cyclopropyl-N-[(2S)-3,3-dimethyl-1-(methylamino)-1-oxobutan-2-yl]-4-[(3-methyloxetan-3-yl)methoxy]pyridine-2-carboxamide]",4 nM,did not affect CXCL2-induced neutrophil migration,174 ± 47 µg/mL,
"Cc1nc([C@](C)(CC2CC2)NC(=O)c2cc(OCC(F)(F)F)c(C3CC3)cn2)no1 [RO6871085, 5-Cyclopropyl-N-[(2S)-1-cyclopropyl-2-(5-methyl-1,2,4-oxadiazol-3-yl)propan-2-yl]-4-(2,2,2-trifluoroethoxy)pyridine-2-carboxamide]",3 nM,,4.2 ± 0.1 µg/mL,
"CC(C)(C)c1nc(N2CC[C@H](O)C2)c2nnn(Cc3nnnn3C3CC3)c2n1 [RO6871304, (3S)-1-{5-tert-butyl-3-[(1-cyclopropyl-1H-tetrazol-5-yl)methyl]-3H-[1,2, 3]triazolo[4,5-d]pyrimidin-7-yl}pyrrolidin-3-ol]",,inhibited neutrophil migration towards CXCL2 in a dose-dependent fashion,,6.6 nM
